Laboratory results: patent publication US20210040089A1, “KRAS MUTANT PROTEIN INHIBITORS” (Jacobio Pharmaceuticals Co., Ltd., priority 2019, published 2021)

What was measured:
KRAS G12C = biological target: T1, KRAS G12C (Homo sapiens, UniProt P01116, G12C); test: SOS1 catalyzed nucleotide exchange assay (TR-FRET); format: biochemical; conditions: GDP-loaded HIS-KRAS(G12C), 1 hour pre-incubation with compound
T1 construct: HIS-KRAS (G12C, aa 2-185, Sino biological); purchased Sino biological
Summary of the method: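 EDTA-stripped, GDP-loaded His-KRAS G12C (aa 2-185; 3 nM final) preincubated 1 h with compound, then SOS1 ExD (aa 564-1049; 2 μM) and BODIPY-FL GTP (80 nM) added for 4 h at 25 °C. TR-FRET via anti-His Tb cryptate (515/486 nm ratio); IC50 from 4-parameter logistic fit.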

NCI-H1373 cells = test: NCI-H1373 xenograft model; format: in vivo, female BALB/c mice; conditions: Table 2, 10 mg/kg, BID; for TGI % / Tumor volume at the end (Day 22): Day 22
Procedure: 4. NCI-H1373 xenograft model
NCI-H1373 cells (5.0E+06 cells) were injected subcutaneously into the right flank of female BALB/c mice (6-8 weeks) in a mixture with Matrigel (BD Bioscience). Mice were monitored daily and caliper measurements began when tumors became visible. Tumor volume was calculated by measuring two perpendicular diameters using the following formula: (L*w^2)/2 in which L and w refer to the length and width tumor diameter, respectively. When the average tumor volume reached 150-200 mm^3, mice were grouped (n=6/group) and treated with compounds. Tumor volume and mice weight was measured twice a week during treatment (˜3 weeks). Tumor growth inhibition rates were calculated by TGI %=(1−(Vt−Vt0)/(Vc−Vc0))*100%, where Vc, Vt are the mean tumor volume of control and treated groups at the end of the study, and Vc0 and Vt0 are the mean tumor volume of control and treated groups at the start.

[1] = test system: Phospho-ERK1/2(THR202/TYR204) in NCI-H358 cells express KRAS G12C; test: Phospho-ERK1/2(THR202/TYR204) HTRF assay; format: cell-based; conditions: Homo sapiens; NCI-H358, 2 hours incubation; read-out: p-ERK inhibition in NCI-H358 IC50
Summary of the method: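 Compounds applied to attached cells for 2 h at 37 °C in RPMI 1640 with 0.1% FBS. Lysate phospho-ERK1/2 detected by HTRF after 4 h antibody incubation at 25 °C; IC50 from 4-parameter logistic fit.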

[2] = test system: NCI-H358 cells express KRAS G12C; test: Cell growth inhibition assay (CCK-8); format: cell-based; conditions: Homo sapiens, 144 h; NCI-H358, 6 days incubation
Summary of the method: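 Antiproliferative read-out: KRAS G12C-mutant NCI-H358 lung cancer cells (3000/well) exposed to compounds in RPMI 1640 with 10% FBS for 6 days at 37°C. Viability by CCK-8 (OD450) after 1.5-2 h; IC50 from 4-parameter logistic fit.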

T1 sequence (P01116 2-185 isoform P01116-2 G12C): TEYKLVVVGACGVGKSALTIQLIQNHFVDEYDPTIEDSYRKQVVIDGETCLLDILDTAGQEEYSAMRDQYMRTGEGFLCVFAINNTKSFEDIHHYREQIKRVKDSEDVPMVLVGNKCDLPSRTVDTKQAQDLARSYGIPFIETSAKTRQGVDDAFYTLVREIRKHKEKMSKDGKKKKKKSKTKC

SMILES	IC50 (KRAS G12C)	TGI % (NCI-H1373 cells)	Tumor volume at the end (Day 22) (NCI-H1373 cells)	Tumor volume at the start (NCI-H1373 cells)	IC50 [1]	IC50 [2]
Cc1cccc2cccc(N3CCc4c(nc(OCC5(CN(C)C)CC5)nc4N4CCN(C(=O)/C=C/CF)[C@@H](CC#N)C4)C3)c12 [Compound 68, (S,E)-2-(4-(2-((1-((dimethylamino)methyl)cyclopropyl)methoxy)-7-(8-methylnaphthalen-1-yl)-5,6,7,8-tetrahydropyrido[3,4-d]pyrimidin-4-yl)-1-(4-fluorobut-2-enoyl)piperazin-2-yl)acetonitrile]	1.6 nM	82.6%	490 mm^3	191 mm^3	69.2 nM	51.5 nM
C=C(F)C(=O)N1CCN(c2nc(OCC3(CN(C)C)CC3)nc3c2CCN(c2cccc4cccc(C)c24)C3)C[C@@H]1CC#N [Compound 83, (S)-2-(4-(2-((1-((dimethylamino)methyl)cyclopropyl)methoxy)-7-(8-methylnaphthalen-1-yl)-5,6,7,8-tetrahydropyrido[3,4-d]pyrimidin-4-yl)-1-(2-fluoroacryloyl)piperazin-2-yl)acetonitrile]	3.9 nM	89.4%	374 mm^3	191 mm^3	190 nM	116 nM
